In brackets after ≈: the same amount, converted by molar mass. Several values for one entry are separate records, joined by “and”; a condition that tells them apart may be missing. Equal values may be shown once.
Experiments:
[1] = system: Salmonella sp.; test: in vitro tube dilution test (MIC); assay type: cell-based
Excerpt: Our compound, 1-(2-hydroxyethyl)-3-nitro-4-pyrazolecarboxamide, has been extensively tested in vitro to determine the range of microorganisms against which it is active. The table of data below reports the minimum inhibitory concentration (MIC) at which the compound is effective in controlling a variety of microorganisms in a standard tube dilution test system. The MIC is reported as micrograms of compound per milliliter.

[2] = system: Arizona hinshaw (paracolon); test: in vitro tube dilution test (MIC); assay type: cell-based
[3] = system: Treponema hyodysenteriae; test: in vitro tube dilution test (MIC); assay type: cell-based; conditions: Brachyspira hyodysenteriae
[4] = system: Mycoplasma hyopneumoniae; test: in vitro tube dilution test (MIC); assay type: cell-based; conditions: Mesomycoplasma hyopneumoniae
[5] = system: Hemophilus gallinarum; test: in vitro tube dilution test (MIC); assay type: cell-based
[6] = system: Streptococcus sp. (group D); test: agar dilution technique (MIC); assay type: cell-based
[7] = system: Shigella sp.; test: agar dilution technique (MIC); assay type: cell-based
[8] = system: Erwinia amylovora; test: Fire blight of pear, in vivo greenhouse test
Method: An in vivo test was conducted against the fire blight organism, Erwinia amylovora. Plants infected with E. amylovora were sprayed with aqueous dispersions containing 100 ppm. and 500 ppm. of the test compounds. […] The compounds are identified below by their compound numbers in the above listing.

[9] = system: naturally-occurring pneumoenteritis complex infection (pasteurella species, E. coli and salmonellae); test: Pneumoenteritis complex disease in calves, second test; assay type: in vivo
Method: The test reported below was conducted in general identically with the test above. All of the calves used in the test were approximately 3 days old when the test began, and the test ran for 56 days.
The treated group received 200 mg./day/calf (about 3-5 mg./kg./day) of 1-(2-hydroxyethyl)-3-nitro-4-pyrazolecarboxamide, which was administered in the calves' milk replacer diet.
The table below reports the average weight gain of the surviving animals and the mortality of the calves in each group.

[10] = system: M. gallisepticum; test: Mycoplasma gallisepticum in chickens; assay type: in vivo
Method: A group of broiler type chickens, weighing about 1265 gm., were obtained from a homogeneous source flock. The birds were allocated into 12-bird treatment groups of equal weight. Four treatment groups were used in each of the treatments, including the untreated infected controls; two groups were held as normal controls.
The birds, other than the normal controls, were challenged by administering two 0.2 ml. injections of a freshly thawed M. gallisepticum culture to each bird, one injection in the wing vein and one in the air sac. Immediately after the challenge, four of the treatment groups were treated by injecting 25 mg./kg., intramuscularly, of 1-(2-hydroxyethyl)-3-nitro-4-pyrazolecarboxamide to each chicken. The other four treated groups received the same compound at 2 gm./gal. (about 50 mg./kg./day) in their drinking water for a period of 41/2 days after the challenge was administered.
The birds were held and observed for about 3 weeks. Mortality in the experiment was negligible. At the end of the observation period, the birds were sacrificed and examined for M. gallisepticum lesions of the air sac. A sample of blood from each bird was tested to determine the presence of M. gallisepticum antibodies. […] The final average weights and the air sac lesion counts are shown below.

[11] = system: P. multocida; test: Pasteurellosis in chickens; assay type: in vivo; conditions: 100 gm. per ton of feed
[12] = system: P. multocida; test: Pasteurellosis in turkeys; assay type: in vivo; conditions: 100 gm./ton
[13] = system: group E streptococci; test: Lymphadenitis in swine; assay type: in vivo; conditions: 200 gm. per ton of feed; 7 weeks; 12 treated swine
Method: The same 3-nitropyrazole tested in the example immediately above was also tested to determine its ability to prevent lymphadenitis, or jowl abscess, infections in swine. One group of 12 young swine was treated with the 3-nitropyrazole compound as a feed additive at the rate of 200 gm. per ton of feed, and another group of 12 swine was held as infected controls. Administration of the 3-nitropyrazole began shortly before the administration of the challenge, and continued throughout the 7-week test. All of the swine were challenged with a culture of group E streptococci isolated from jowl abscesses of an infected pig. The challenge organisms were administered as a dispersion in the swine's drinking water. After 7 weeks, all of the swine were slaughtered, and their cervical areas were examined for the presence of the abscesses caused by lymphadenitis infections. […] Abscesses were found in 9 of the 12 infected control animals.

[14] = Growth promotion in swine; assay type: in vivo; conditions: 300 gm./ton; 28 days
Excerpt: The same 3-nitropyrazole tested above was used in a growth promotion test in swine. The pigs weighed 25-30 lbs. when the test began, and were housed and fed according to good commercial practice for 28 days. The pigs in the treated group received feed containing 300 gm. per ton of the 3-nitropyrazole compound.

[15] = secretion in sow's milk; set-up: species or system swine; conditions: in vivo

NC(=O)c1cn(CCO)nc1[N+](=O)[O-] [Compound 32, 1-(2-hydroxyethyl)-3-nitro-4-pyrazolecarboxamide]
MIC [1]: 3.12 µg/mL (≈ 15.6 µM)
MIC [2]: 6.25 µg/mL (≈ 31.2 µM)
MIC [3]: 3.12 µg/mL (≈ 15.6 µM)
MIC [4]: 50 µg/mL (≈ 250 µM)
MIC [5]: 0.78 µg/mL (≈ 3.9 µM)
MIC [6]: 32 µg/mL (≈ 160 µM)
MIC [7]: 16 µg/mL (≈ 79.9 µM)
Percent Control of fire blight ([8]; 100 ppm.): 50%
Percent Control of fire blight ([8]; 500 ppm.): 92%
Mortality ([9]; 200 mg./day/calf): about 12%
surviving treated calves with E. coli in rectal swabs ([9]; 200 mg./day/calf): all of the surviving treated calves
survivors with P. multocida organisms in nasal secretions ([9]; 200 mg./day/calf): 6 of the survivors
Mortality ([9]; 200 mg./day/calf (about 3-5 mg./kg./day), 56 days): 1/8
Avg. Wt. Gain ([9]; 200 mg./day/calf (about 3-5 mg./kg./day), 56 days, survivors): 52.1 lbs.
Air Sac Lesions ([10]; 25 mg./kg. (injected)): 41/48
Avg. Wt. ([10]; 25 mg./kg. (injected)): 2093 gm.
Air Sac Lesions ([10]; 2.0 gm./gal. drinking water): 24/47
Avg. Wt. ([10]; 2.0 gm./gal. drinking water): 2188 gm.
increase of birds' weight ([10]; in one case (average, each)): more than 160 gm.
increase of birds' weight ([10]; in the other treatment (average, each)): ~260 gm.
Mortality [11]: about 12%
presence of isolable P. multocida in treated birds [11]: about half of the treated birds
Culture Isolation ([11]; individual 8-bird group): 6/8 and 3/8
Mortality Rate ([11]; individual 8-bird group): 2/8 and 0/8
Culture Isolation, Total ([11]; total of two groups): 9/16
Mortality Rate, Total ([11]; total of two groups): 2/16
Mortality Rate [12]: 20%
Culture Isolation ([12]; about 5 mg./kg./day): 1/5
Mortality Rate ([12]; about 5 mg./kg./day): 1/5
abscesses in cervical areas [13]: No abscesses were found in any of the treated swine
Average Daily Feed Consumption [14]: 2.00 lbs.
Average Daily Gain [14]: 1.01 lbs.
Feed/Gain [14]: 1.96
secretion in sow's milk [15]: secreted in sow's milk

Source: patent US4145554A, “3-Nitropyrazole derivatives” (Eli Lilly and Company, priority 1977, dated 1979)
